This assay concerns the target T1, TRPML1 (Homo sapiens, UniProt Q9GZU1).
T1 construct: expressed in transfected cells
The assay can be described thus: Cellular TRPML1 assay (FLIPR TETRA, GCaMP6f calcium read-out). The assay is classed as cell-based. As to conditions: HEK T-REx/GCaMP6f/TRPML1 cells; Ca2+ response over 300 s, normalized to ML-SA1 50 μM; Ca2+ free or Optimem condition not given; read-out: Ec50 (Activity of TRPML1 agonists). On the procedure: Buffers and reagents • PBS (D-PBS without calcium and magnesium; EuroClone) • Trypsin (Trypsin 0.05%, EDTA 0.02% in PBS; EuroClone) • DMSO (Sigma) • Ca^2+ free Tyrode's buffer: in-house solution (130 mM NaCl, 5 mM KCl, 1 mM MgCl2, 5 mM NaHCO3, 20 mM HEPES in water at pH 7.4; sterile filtered). • Opti-MEM (Gibco) • Agonist: ML-SA1 (Sigma); stock: 60 mM in DMSO, stored at −20° C. • Blocker: ML-SI3 (in house synthesis); stock: 20 mM in DMSO, stored at −20° C.
The final clone for the TRPML1 assay is HEK T-REx/GCaMP6f/TRPML1.
GCaMP6f is a genetically encoded calcium indicator that is stably expressed in this cell line and used as a fluorescent read-out.
Experiments are performed in 384 MTP format. Cells are seeded at 15000 cells/well either in 25 μl/well of growth medium or in 20 μl/well of Optimem+0.5% FBS without selection antibiotics. Twenty-four hours later, cells are assayed for the response to various compounds using the Ca^2+ sensitive GCaMP6f protein stably expressed in the cells as readout.
The experiment is performed in a 384-well format according to the following procedures for either Ca^2+ free or Optimem conditions: • Ca^2+ free condition (in absence of extracellular Ca^2+): • 24 h after seeding, pre-incubate the cells at room temperature for about 10′. • Then remove the culture medium and replace it with 20 μL of Ca^2+ free Tyrode's buffer. • Start the experiment at the FLIPR^TETRA by injecting 10 μL/w of 3× concentrated test compounds and controls in Ca^2+ free Tyrode's buffer. Monitor the kinetic response over a period of 300 seconds. • Final DMSO concentration: 0.5% • Optimem condition (in presence of extracellular Ca^2+): • 24 h after seeding, pre-incubate the cells at room temperature for about 10′. • Start the experiment at the FLIPR^TETRA by injecting 10 μL/w of 3× concentrated test compounds and controls in Ca^2+ free Tyrode's buffer. Monitor the kinetic response over a period of 300 seconds. • Final DMSO concentration: 0.5%
Data from FLIPR^TETRA measurements are analyzed with the Genedata Screener® software.
Stimulator controls (Col 2): injection of ML-SA1 EC100 (50 μM) in alternated wells positions
Neutral controls (Col 2): injection of 0 mM Ca^2+ free Tyrode's buffer in alternated wells positions.
Test wells (Col 3-22): test compounds dose response curve from either 100 μM with 1:2 dilution steps or from 50 μM with 1:3.16 dilution steps.
T1 sequence (Q9GZU1 whole entry): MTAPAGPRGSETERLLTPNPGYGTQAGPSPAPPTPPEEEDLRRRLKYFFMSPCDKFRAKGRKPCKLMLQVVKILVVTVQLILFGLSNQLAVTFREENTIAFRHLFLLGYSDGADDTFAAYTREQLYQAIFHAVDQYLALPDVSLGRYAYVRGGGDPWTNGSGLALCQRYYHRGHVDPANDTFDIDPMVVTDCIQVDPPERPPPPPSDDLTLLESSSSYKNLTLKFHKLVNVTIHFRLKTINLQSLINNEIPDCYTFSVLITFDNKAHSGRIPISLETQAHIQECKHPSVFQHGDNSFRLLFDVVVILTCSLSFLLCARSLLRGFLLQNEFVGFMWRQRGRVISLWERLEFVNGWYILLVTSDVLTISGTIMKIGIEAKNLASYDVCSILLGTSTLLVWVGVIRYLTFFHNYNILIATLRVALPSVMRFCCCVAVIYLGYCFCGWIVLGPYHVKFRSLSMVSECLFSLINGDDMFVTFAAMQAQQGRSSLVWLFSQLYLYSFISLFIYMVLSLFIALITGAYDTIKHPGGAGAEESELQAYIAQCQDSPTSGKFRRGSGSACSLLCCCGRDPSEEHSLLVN
Take `CC1Cc2cc(S(=O)(=O)Nc3ccccc3N3CCN(C(=O)OC(C)(C)C)CC3)ccc2O1` (racemic) [Example 92, tert-butyl 4-(2-((2-methyl-2,3-dihydrobenzofuran)-5-sulfonamido)phenyl)piperazine-1-carboxylate]: the EC50 came out at 2.4 µM.
Turning to `COC1CCCN(c2ccccc2NS(=O)(=O)c2ccc(S(=O)(=O)N(C)C)cc2)CC1` (single isomer, unassigned) [Example 41, N1-(2-(4-methoxyazepan-1-yl)phenyl)-N4,N4-dimethylbenzene-1,4-disulfonamide], the EC50 is 4.4 µM.
Consider `COC1CCCN(c2ccccc2NS(=O)(=O)c2ccc(S(=O)(=O)N(C)C)cc2)CC1` (single isomer, unassigned) [Example 42, N1-(2-(4-methoxyazepan-1-yl)phenyl)-N4,N4-dimethylbenzene-1,4-disulfonamide], for which the EC50 worked out at 5.6 µM.
`CN(C)S(=O)(=O)c1ccc(S(=O)(=O)NC2CCCCC2N2CCC(Oc3ccccc3)CC2)cc1` (single isomer, unassigned) [Example 62, N1,N1-dimethyl-N4-[2-(4-phenoxypiperidin-1-yl)cyclohexyl]benzene-1,4-disulfonamide]: the EC50 came out at 15.9 µM.
Turning to `CC1Cc2cc(S(=O)(=O)Nc3ccccc3N3CCN(C(=O)OC(C)(C)C)CC3)ccc2O1` (single isomer, unassigned) [Example 93, tert-butyl 4-(2-((2-methyl-2,3-dihydrobenzofuran)-5-sulfonamido)phenyl)piperazine-1-carboxylate], the EC50 was 4.9 µM.
For the compound `CC1Cc2cc(S(=O)(=O)Nc3ccccc3N3CCN(C(=O)OC(C)(C)C)CC3)ccc2O1` (single isomer, unassigned) [Example 94, tert-butyl 4-(2-((2-methyl-2,3-dihydrobenzofuran)-5-sulfonamido)phenyl)piperazine-1-carboxylate], the EC50 was 3.8 µM.
For `O=S(=O)(Nc1ccccc1N1CCCCC1)c1cc2ccccc2s1` [Example 1, N-[2-(piperidin-1-yl)phenyl]-1-benzothiophene-2-sulfonamide], the EC50 was 91.1 µM.
On to `CN(C)c1ccc(S(=O)(=O)Nc2ccccc2N2CCCCC2)cc1` [Example 2, 4-(dimethylamino)-N-[2-(piperidin-1-yl)phenyl]benzene-1-sulfonamide], for which the 50% effective concentration (EC50) came to 58.9 µM.
For `CN(C)c1ccccc1NS(=O)(=O)c1ccc(S(=O)(=O)N(C)C)cc1` [Example 3, N4-[2-(dimethylamino)phenyl]-N1,N1-dimethylbenzene-1,4-disulfonamide], the EC50 was 50.2 µM.
The same measure for `CN(C)S(=O)(=O)c1ccc(S(=O)(=O)Nc2ccccc2N2CC3CCC2C3)cc1` (centres unmarked) [Example 4, N4-(2-{2-azabicyclo[2.2.1]heptan-2-yl}phenyl)-N1,N1-dimethylbenzene-1,4-disulfonamide]: 8.4 µM; for `CN(C(=O)c1ccc(S(=O)(=O)N(C)C)cc1)c1ccccc1N1CCN(C(=O)OC(C)(C)C)CC1` [Example 5, tert-butyl 4-(2-(4-(N,N-dimethylsulfamoyl)-N-methylbenzamido)phenyl)piperazine-1-carboxylate]: 6 µM.
Consider `CN(C)S(=O)(=O)c1ccc(CC(=O)Nc2ccccc2N2CCCC2)cc1` [Example 7, 2-[4-(dimethylsulfamoyl)phenyl]-N-[2-(pyrrolidin-1-yl)phenyl]acetamide], for which the EC50 is 85.4 µM.
For the compound `CN(C)S(=O)(=O)c1ccc(S(=O)(=O)Nc2ccccc2N2CCc3ccccc32)cc1` [Example 8, N4-[2-(2,3-dihydro-1H-indol-1-yl)phenyl]-N1,N1-dimethylbenzene-1,4-disulfonamide], the EC50 came out at 64 µM.
`CN(C)S(=O)(=O)c1ccc(S(=O)(=O)Nc2ccccc2N2CCc3ccccc3C2)cc1` [Example 9, N1,N1-dimethyl-N4-[2-(1,2,3,4-tetrahydroisoquinolin-2-yl)phenyl]benzene-1,4-disulfonamide]: the EC50 was 47.4 µM.

A word on the EC50: it is the concentration needed to bring the measured effect to its halfway point.
